# Assays:
# [1] = molecular target: T1, 5-hydroxytryptamine receptor 2C (Homo sapiens, UniProt P28335)
# T1 sequence (P28335 whole entry): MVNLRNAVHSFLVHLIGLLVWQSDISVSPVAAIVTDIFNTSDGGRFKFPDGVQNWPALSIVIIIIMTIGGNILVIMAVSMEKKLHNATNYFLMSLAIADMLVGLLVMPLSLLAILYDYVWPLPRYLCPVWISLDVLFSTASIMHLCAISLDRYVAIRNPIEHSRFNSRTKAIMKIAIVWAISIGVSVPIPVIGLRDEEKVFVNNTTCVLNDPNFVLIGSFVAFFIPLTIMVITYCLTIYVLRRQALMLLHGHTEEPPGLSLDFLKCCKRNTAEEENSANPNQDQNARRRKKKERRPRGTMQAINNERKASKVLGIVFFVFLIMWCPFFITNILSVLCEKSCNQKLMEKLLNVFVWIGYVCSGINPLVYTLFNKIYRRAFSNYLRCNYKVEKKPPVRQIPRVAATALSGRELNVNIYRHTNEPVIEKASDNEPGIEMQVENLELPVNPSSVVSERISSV
# [2] = molecular target: T2, Cholecystokinin receptor type A (Homo sapiens, UniProt P32238)
# T2 sequence (P32238 whole entry): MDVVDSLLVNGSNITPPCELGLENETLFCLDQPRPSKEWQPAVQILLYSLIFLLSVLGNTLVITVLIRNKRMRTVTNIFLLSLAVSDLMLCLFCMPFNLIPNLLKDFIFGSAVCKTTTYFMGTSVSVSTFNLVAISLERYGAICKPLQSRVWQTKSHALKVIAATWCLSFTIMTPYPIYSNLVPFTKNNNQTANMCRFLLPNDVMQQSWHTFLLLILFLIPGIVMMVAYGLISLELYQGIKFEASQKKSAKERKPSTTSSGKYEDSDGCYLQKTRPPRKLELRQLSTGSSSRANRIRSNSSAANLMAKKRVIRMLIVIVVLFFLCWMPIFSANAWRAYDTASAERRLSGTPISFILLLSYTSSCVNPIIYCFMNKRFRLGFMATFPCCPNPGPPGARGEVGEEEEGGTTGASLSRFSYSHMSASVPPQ
# [3] = molecular target: cGMP-inhibited 3',5'-cyclic phosphodiesterase 3A (Homo sapiens, UniProt Q14432); type: functional
# [4] = molecular target: Neuronal acetylcholine receptor subunit alpha-4 (Homo sapiens, UniProt P43681)
# [5] = molecular target: Delta-type opioid receptor (Homo sapiens, UniProt P41143)
# Motilin receptor = Motilin receptor (Homo sapiens, UniProt O43193)
# [6] = molecular target: T3, Prostaglandin G/H synthase 1 (Rattus norvegicus, UniProt Q63921); type: functional
# T3 sequence (Q63921 whole entry): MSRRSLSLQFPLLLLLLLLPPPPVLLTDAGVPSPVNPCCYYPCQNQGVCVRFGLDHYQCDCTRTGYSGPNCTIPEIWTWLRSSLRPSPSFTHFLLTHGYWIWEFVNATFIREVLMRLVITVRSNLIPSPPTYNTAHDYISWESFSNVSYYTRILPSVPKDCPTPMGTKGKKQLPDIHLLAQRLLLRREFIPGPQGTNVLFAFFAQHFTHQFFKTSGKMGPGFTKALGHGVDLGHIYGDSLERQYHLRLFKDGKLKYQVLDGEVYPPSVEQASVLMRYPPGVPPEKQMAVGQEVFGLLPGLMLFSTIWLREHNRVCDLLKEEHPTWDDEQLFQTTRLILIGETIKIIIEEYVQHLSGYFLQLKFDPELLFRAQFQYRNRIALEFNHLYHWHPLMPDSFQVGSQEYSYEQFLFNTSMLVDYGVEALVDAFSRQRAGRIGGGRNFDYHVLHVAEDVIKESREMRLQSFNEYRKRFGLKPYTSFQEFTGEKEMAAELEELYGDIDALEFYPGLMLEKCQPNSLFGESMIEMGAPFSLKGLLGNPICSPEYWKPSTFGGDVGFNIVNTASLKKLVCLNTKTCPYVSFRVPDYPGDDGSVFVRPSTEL
# [7] = molecular target: Gamma-aminobutyric acid receptor subunit alpha-1 (Rattus norvegicus, UniProt P62813); type: functional
# [8] = molecular target: 5-hydroxytryptamine receptor 2B (Homo sapiens, UniProt P41595); type: functional, cell-based
# [9] = molecular target: Sodium-dependent noradrenaline transporter (Homo sapiens, UniProt P23975)
# [10] = molecular target: T4, Amine oxidase [flavin-containing] A (Homo sapiens, UniProt P21397); type: functional
# T4 sequence (P21397 whole entry): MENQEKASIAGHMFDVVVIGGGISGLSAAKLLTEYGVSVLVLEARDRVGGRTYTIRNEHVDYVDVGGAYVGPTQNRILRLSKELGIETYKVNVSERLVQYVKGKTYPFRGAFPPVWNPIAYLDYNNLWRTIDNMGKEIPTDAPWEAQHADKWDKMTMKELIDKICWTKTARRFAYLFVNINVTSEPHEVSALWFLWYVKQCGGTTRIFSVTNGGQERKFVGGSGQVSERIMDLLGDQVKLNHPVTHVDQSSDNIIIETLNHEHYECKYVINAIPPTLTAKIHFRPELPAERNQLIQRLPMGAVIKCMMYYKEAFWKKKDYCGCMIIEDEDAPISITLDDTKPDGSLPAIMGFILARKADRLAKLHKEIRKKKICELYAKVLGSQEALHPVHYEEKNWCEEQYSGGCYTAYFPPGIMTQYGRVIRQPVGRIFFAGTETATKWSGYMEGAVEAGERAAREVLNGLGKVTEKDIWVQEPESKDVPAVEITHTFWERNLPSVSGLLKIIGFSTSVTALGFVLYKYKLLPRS
# [11] = molecular target: T5, Alpha-2A adrenergic receptor (Homo sapiens, UniProt P08913); type: functional, cell-based
# T5 sequence (P08913 whole entry): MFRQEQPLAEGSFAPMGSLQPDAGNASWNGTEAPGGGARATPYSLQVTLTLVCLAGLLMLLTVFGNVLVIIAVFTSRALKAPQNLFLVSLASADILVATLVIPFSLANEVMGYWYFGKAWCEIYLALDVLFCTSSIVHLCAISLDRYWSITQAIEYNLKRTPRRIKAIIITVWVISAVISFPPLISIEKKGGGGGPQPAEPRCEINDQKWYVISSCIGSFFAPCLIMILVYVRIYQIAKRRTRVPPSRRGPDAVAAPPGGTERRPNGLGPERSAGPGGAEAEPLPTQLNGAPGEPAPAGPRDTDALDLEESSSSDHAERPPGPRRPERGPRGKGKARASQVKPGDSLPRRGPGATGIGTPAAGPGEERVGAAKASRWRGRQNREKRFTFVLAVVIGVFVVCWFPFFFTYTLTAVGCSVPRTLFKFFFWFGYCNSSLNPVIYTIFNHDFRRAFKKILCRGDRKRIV
# Also: assay procedure not described here.
# Chain of Delta-type opioid receptor (P41143 whole entry): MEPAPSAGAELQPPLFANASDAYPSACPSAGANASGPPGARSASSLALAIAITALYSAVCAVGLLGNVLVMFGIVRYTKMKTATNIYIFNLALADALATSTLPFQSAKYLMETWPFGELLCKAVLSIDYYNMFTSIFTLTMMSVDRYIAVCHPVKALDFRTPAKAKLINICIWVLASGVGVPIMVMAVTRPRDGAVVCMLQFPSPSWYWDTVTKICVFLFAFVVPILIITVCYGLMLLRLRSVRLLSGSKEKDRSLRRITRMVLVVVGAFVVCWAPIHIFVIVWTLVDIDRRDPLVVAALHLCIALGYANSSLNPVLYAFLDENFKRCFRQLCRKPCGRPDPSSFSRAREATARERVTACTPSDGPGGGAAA
# Chain of Gamma-aminobutyric acid receptor subunit alpha-1 (P62813 whole entry): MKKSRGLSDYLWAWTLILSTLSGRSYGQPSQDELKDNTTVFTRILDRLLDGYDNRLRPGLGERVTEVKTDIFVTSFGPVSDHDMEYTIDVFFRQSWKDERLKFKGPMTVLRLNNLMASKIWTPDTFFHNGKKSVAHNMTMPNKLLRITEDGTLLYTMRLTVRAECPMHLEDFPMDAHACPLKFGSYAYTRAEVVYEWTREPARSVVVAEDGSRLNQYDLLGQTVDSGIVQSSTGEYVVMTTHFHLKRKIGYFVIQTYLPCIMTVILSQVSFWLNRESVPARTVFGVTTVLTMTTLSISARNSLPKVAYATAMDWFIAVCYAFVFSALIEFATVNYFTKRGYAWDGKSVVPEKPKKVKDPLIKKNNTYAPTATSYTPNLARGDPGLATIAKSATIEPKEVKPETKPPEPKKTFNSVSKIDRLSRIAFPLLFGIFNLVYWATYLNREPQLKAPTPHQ
# Chain of cGMP-inhibited 3',5'-cyclic phosphodiesterase 3A (Q14432 whole entry): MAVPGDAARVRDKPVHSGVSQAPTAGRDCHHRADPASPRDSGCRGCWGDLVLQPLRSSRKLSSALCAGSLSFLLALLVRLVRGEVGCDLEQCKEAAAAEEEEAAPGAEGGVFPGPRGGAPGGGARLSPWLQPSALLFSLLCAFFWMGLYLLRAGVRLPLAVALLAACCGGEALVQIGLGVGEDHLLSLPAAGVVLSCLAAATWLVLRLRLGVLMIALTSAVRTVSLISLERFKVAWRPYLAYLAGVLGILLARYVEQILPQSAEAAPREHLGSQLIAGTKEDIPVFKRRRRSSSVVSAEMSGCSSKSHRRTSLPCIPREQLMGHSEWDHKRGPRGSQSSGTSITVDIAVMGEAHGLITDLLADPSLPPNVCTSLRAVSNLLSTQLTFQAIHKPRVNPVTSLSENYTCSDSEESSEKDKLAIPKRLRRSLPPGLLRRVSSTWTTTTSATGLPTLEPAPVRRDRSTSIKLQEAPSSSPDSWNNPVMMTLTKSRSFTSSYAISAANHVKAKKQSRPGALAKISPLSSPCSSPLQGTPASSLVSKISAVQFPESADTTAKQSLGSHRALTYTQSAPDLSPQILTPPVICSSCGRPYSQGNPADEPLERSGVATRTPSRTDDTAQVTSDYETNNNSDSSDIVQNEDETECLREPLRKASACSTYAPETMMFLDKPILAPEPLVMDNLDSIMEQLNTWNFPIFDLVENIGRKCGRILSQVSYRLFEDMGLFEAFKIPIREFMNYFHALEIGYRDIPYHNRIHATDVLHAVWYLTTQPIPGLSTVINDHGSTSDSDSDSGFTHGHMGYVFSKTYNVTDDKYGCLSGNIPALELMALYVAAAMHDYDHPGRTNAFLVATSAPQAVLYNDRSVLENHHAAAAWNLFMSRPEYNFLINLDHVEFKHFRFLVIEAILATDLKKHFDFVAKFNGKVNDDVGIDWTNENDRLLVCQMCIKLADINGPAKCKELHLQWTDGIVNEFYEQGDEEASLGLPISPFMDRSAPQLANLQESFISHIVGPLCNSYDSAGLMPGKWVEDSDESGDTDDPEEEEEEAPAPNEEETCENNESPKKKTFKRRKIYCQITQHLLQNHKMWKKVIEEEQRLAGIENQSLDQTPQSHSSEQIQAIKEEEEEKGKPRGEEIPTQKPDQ
# Chain of Sodium-dependent noradrenaline transporter (P23975 whole entry): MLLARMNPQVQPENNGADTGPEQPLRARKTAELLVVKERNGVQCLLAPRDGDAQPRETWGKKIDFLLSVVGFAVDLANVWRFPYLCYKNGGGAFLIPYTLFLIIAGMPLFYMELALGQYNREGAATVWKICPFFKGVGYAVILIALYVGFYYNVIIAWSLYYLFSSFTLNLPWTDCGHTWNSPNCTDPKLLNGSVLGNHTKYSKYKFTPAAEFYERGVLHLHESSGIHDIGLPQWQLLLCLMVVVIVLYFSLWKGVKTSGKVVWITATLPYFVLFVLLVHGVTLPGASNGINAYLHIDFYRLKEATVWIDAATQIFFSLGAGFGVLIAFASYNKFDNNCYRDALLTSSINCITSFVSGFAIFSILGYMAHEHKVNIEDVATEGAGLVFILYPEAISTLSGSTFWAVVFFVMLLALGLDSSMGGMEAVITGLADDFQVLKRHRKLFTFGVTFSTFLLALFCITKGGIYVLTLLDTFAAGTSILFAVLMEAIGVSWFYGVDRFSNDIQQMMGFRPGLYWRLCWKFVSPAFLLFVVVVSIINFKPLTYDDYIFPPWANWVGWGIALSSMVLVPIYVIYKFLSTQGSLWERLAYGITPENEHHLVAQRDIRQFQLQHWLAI
# Chain of 5-hydroxytryptamine receptor 2B (P41595 whole entry): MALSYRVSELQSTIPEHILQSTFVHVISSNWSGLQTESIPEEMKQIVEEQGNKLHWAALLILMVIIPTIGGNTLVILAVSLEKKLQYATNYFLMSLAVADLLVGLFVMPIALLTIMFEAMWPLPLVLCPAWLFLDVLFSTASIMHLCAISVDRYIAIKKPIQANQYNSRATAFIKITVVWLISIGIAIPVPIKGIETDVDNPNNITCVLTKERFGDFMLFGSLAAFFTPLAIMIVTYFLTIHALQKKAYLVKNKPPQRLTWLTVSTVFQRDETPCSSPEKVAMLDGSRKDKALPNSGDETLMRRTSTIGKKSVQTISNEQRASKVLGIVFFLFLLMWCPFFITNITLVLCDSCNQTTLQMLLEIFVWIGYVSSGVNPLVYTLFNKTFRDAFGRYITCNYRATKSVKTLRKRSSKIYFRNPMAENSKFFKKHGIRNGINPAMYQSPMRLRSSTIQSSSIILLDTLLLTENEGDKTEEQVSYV
# Chain of Neuronal acetylcholine receptor subunit alpha-4 (P43681 whole entry): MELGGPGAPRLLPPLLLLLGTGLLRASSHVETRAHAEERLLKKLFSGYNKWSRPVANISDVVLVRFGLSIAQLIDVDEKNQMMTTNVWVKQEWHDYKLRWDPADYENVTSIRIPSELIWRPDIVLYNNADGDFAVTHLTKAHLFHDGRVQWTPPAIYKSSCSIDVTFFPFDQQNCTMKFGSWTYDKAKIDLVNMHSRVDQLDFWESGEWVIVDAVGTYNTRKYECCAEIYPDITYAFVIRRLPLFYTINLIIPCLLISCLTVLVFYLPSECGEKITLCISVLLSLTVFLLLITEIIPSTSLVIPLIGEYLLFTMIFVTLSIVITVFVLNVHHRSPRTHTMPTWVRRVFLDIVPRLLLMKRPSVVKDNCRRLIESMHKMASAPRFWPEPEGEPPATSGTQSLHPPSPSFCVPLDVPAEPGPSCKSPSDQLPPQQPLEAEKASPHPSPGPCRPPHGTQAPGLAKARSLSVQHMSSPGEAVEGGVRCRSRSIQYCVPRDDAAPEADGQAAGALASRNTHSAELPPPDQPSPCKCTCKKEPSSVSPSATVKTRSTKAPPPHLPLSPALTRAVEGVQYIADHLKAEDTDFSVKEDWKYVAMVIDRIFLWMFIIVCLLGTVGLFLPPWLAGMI
# Chain of Motilin receptor (O43193 whole entry): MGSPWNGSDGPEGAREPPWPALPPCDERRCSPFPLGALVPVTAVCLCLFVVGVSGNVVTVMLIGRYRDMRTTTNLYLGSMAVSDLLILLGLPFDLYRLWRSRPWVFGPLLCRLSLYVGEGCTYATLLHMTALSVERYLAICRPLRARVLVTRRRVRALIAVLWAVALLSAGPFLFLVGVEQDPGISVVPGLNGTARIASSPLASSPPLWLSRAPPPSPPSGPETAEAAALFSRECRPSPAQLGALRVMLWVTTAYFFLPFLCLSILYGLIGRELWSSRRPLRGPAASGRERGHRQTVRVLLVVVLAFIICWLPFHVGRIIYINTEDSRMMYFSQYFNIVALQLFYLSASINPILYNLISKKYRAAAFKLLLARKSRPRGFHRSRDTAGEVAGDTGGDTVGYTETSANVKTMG
Compound,AC50 [1] [µM],AC50 [2] [µM],AC50 [3] [µM],AC50 [4] [µM],AC50 [5] [µM],AC50 (Motilin receptor) [µM],AC50 [6] [µM],AC50 [7] [µM],AC50 [8] [µM],AC50 [9] [µM],AC50 [10] [µM],AC50 [11] [µM]
CO[C@@H]1[C@@H](OC(N)=O)[C@@H](O)[C@H](Oc2ccc3c(O)c(NC(=O)c4ccc(O)c(CC=C(C)C)c4)c(=O)oc3c2C)OC1(C)C [NOVOBIOCIN],> 30,> 30,> 30,> 30,> 30,> 30,> 30,> 30,> 30,> 30,> 30,> 30
CCC[C@@]1(CCc2ccccc2)CC(O)=C([C@H](CC)c2cccc(NS(=O)(=O)c3ccc(C(F)(F)F)cn3)c2)C(=O)O1,> 30,27,> 30,> 30,16,27,5.8,> 30,7.5,> 30,> 30,> 30
CN(C)CCN(Cc1ccccc1)c1ccccn1 [TRIPELENNAMINE],> 10,> 10,> 10,> 10,> 30,> 10,> 10,> 10,> 10,13.4,> 10,> 10
CCOC(=O)[C@H](CCc1ccccc1)N[C@@H](C)C(=O)N1Cc2ccccc2C[C@H]1C(=O)O,> 10,> 30,> 10,> 10,> 10,> 10,> 30,> 10,> 10,> 10,> 10,> 10
NCCCNCCSP(=O)(O)O [AMIFOSTINE],> 30,> 30,> 30,> 30,> 30,> 30,> 30,> 30,> 30,> 30,> 30,> 30
C[C@H](Nc1ncnc2[nH]cnc12)c1cc2cccc(Cl)c2c(=O)n1-c1ccccc1 [DUVELISIB],> 30,> 30,> 30,> 30,> 30,> 30,> 30,> 30,> 30,> 30,> 30,> 30

# The next lines start with the values.
AC50 [1] [µM],AC50 [2] [µM],AC50 [3] [µM],AC50 [4] [µM],AC50 [5] [µM],AC50 (Motilin receptor) [µM],AC50 [6] [µM],AC50 [7] [µM],AC50 [8] [µM],AC50 [9] [µM],AC50 [10] [µM],AC50 [11] [µM],Compound
> 30,> 30,> 30,> 30,> 30,> 30,> 30,> 30,8.6,> 30,> 30,> 30,COc1cc2c(cc1OC)C1CC(=O)C(CC(C)C)CN1CC2 (stereo not drawn) [TETRABENAZINE]
> 30,> 30,> 30,> 10,> 30,> 10,> 30,> 10,> 10,> 30,> 10,> 10,C[C@]12CCC(=O)C=C1CC[C@H]1[C@@H]3CC[C@](O)(C(=O)CO)[C@@]3(C)C[C@H](O)[C@@]12F [FLUDROCORTISONE]
> 30,> 30,> 30,> 10,> 30,> 10,> 30,> 10,> 10,> 30,> 10,> 10,C[C@H](CS)C(=O)N1CCC[C@H]1C(=O)O [CAPTOPRIL]
> 30,> 30,> 30,> 10,> 30,> 10,> 30,> 10,> 10,> 30,> 10,> 10,C=CC1=C(C(=O)O)N2C(=O)[C@@H](NC(=O)/C(=N\O)c3csc(N)n3)[C@H]2SC1
> 30,> 30,> 30,> 30,> 30,> 30,> 30,> 30,> 30,24,> 30,> 30,CN(C)CCOC(c1ccc(Cl)cc1)c1ccccn1 (stereo not drawn) [CARBINOXAMINE]
> 30,> 10,> 30,> 10,> 30,> 10,> 10,> 10,> 10,> 10,> 10,> 10,CCC1(c2ccccc2)C(=O)NCNC1=O [PRIMIDONE]
> 30,> 30,> 30,> 10,> 30,> 10,> 30,> 10,> 10,> 30,> 10,> 10,O=C(O)COC(=O)Cc1ccccc1Nc1c(Cl)cccc1Cl [ACECLOFENAC]
> 30,> 30,> 30,> 30,> 30,> 30,> 30,> 30,> 30,> 10,> 30,> 30,CC(=O)SCC(Cc1ccccc1)C(=O)NCC(=O)OCc1ccccc1 (stereo not drawn) [RACECADOTRIL]
